Data as given in ChEMBL document CHEMBL1201862, “PubChem BioAssay data set” (2004).
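Step 1: Grow cells in 96-well plates. Step 2: Expose to compound for 48 hours at 5 concentrations. Step 3: Interpolate endpoints linearly; if unreached, use highest concentration. GI50 = concentration required for 50% inhibition of growth.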 The source made the active and inactive calls. Cut-off read from the data, not from the text of the source: active = GI50 up to about 1.1 µM and inactive = higher.

What was measured:
Assay in all cases: NCI tumour cell line growth inhibition, 48 h
CCRF-CEM = tested on: CCRF-CEM
EKVX = tested on: EKVX
A549 = tested on: A549
SK-MEL-5 = tested on: SK-MEL-5
MDA-MB-231 = tested on: MDA-MB-231
Malme-3M = tested on: Malme-3M
MCF7 = tested on: MCF7
SR = tested on: SR
HOP-62 = tested on: HOP-62
M14 = tested on: M14
SF-539 = tested on: SF-539
HOP-92 = tested on: HOP-92
NCI-H522 = tested on: NCI-H522
DU-145 = tested on: DU-145
SK-MEL-2 = tested on: SK-MEL-2
NCI/ADR-RES = tested on: NCI/ADR-RES
K562 = tested on: K562
NCI-H226 = tested on: NCI-H226
MOLT-4 = tested on: MOLT-4
OVCAR-5 = tested on: OVCAR-5
SNB-19 = tested on: SNB-19
T47D = tested on: T47D
COLO 205 = tested on: COLO 205
TK-10 = tested on: TK-10
HCT-116 = tested on: HCT-116
NCI-H460 = tested on: NCI-H460
HCC 2998 = tested on: HCC 2998
OVCAR-8 = tested on: OVCAR-8
NCI-H23 = tested on: NCI-H23
SF-295 = tested on: SF-295
IGROV-1 = tested on: IGROV-1
PC-3 = tested on: PC-3
SW-620 = tested on: SW-620
OVCAR-4 = tested on: OVCAR-4
RXF 393 = tested on: RXF 393
SF-268 = tested on: SF-268
HL-60 = tested on: HL-60
A498 = tested on: A498
BT-549 = tested on: BT-549
CAKI-1 = tested on: CAKI-1
UACC-257 = tested on: UACC-257
KM12 = tested on: KM12
MDA-MB-435 = tested on: MDA-MB-435
MDA-N = tested on: MDA-N
U-251 = tested on: U-251
SN12C = tested on: SN12C
SK-MEL-28 = tested on: SK-MEL-28
UACC-62 = tested on: UACC-62
HCT-15 = tested on: HCT-15
LOX IMVI = tested on: LOX IMVI
786-0 = tested on: 786-0
HT-29 = tested on: HT-29
RPMI-8226 = tested on: RPMI-8226
OVCAR-3 = tested on: OVCAR-3
Hs-578T = tested on: Hs-578T
SK-OV-3 = tested on: SK-OV-3
UO-31 = tested on: UO-31
ACHN = tested on: ACHN
SNB-75 = tested on: SNB-75

**Q.** For COc1cc2c(cc1O)[C@@H]1Cc3c(cc(OC)c(OC)c3Oc3cc4c(cc3OC)CCN(C)[C@@H]4Cc3ccc(O)cc3)[C@H](C2)N1C, which GI50 (CCRF-CEM) is on record?
**A.** 28.6 µM (inactive)

**Q.** What about the GI50 (EKVX) of the same compound?
**A.** > 100 µM (inactive)

**Q.** And the GI50 (A549)?
**A.** > 100 µM (inactive)

**Q.** And the GI50 (SK-MEL-5)?
**A.** 15.8 µM (inactive)

**Q.** And the GI50 (MDA-MB-231)?
**A.** 43.3 µM (inactive)

**Q.** What about the GI50 (Malme-3M) of the same compound?
**A.** 17.1 µM (inactive)

**Q.** And the GI50 (MCF7)?
**A.** 55.5 µM (inactive)

**Q.** And the GI50 (SR)?
**A.** 13 µM (inactive)

**Q.** And the GI50 (HOP-62)?
**A.** > 95.5 µM (inactive)

**Q.** What about the GI50 (M14) of the same compound?
**A.** 18.2 µM (inactive)

**Q.** And the GI50 (SF-539)?
**A.** 23.5 µM (inactive)

**Q.** What about the GI50 (HOP-92) of the same compound?
**A.** 37.9 µM (inactive)

**Q.** What about the GI50 (NCI-H522) of the same compound?
**A.** 27.7 µM (inactive)

**Q.** And the GI50 (DU-145)?
**A.** > 100 µM (inactive)

**Q.** What about the GI50 (SK-MEL-2) of the same compound?
**A.** 22.6 µM (inactive)

**Q.** And the GI50 (NCI/ADR-RES)?
**A.** > 100 µM (inactive)

**Q.** And the GI50 (K562)?
**A.** 20.3 µM (inactive)

**Q.** What about the GI50 (NCI-H226) of the same compound?
**A.** > 100 µM (inactive)

**Q.** And the GI50 (MOLT-4)?
**A.** 31 µM (inactive)

**Q.** And the GI50 (OVCAR-5)?
**A.** > 100 µM (inactive)

**Q.** And the GI50 (SNB-19)?
**A.** > 100 µM (inactive)

**Q.** And the GI50 (T47D)?
**A.** 36.1 µM (inactive)

**Q.** What about the GI50 (COLO 205) of the same compound?
**A.** 19.4 µM (inactive)

**Q.** What about the GI50 (TK-10) of the same compound?
**A.** > 72.3 µM (inactive)

**Q.** And the GI50 (HCT-116)?
**A.** 48.1 µM (inactive)

**Q.** What about the GI50 (NCI-H460) of the same compound?
**A.** 53.7 µM (inactive)

**Q.** And the GI50 (HCC 2998)?
**A.** 31 µM (inactive)

**Q.** What about the GI50 (OVCAR-8) of the same compound?
**A.** 53 µM (inactive)

**Q.** What about the GI50 (NCI-H23) of the same compound?
**A.** > 100 µM (inactive)

**Q.** And the GI50 (SF-295)?
**A.** 46 µM (inactive)

**Q.** What about the GI50 (IGROV-1) of the same compound?
**A.** 82.2 µM (inactive)

**Q.** And the GI50 (PC-3)?
**A.** 36.2 µM (inactive)

**Q.** What about the GI50 (SW-620) of the same compound?
**A.** 36.6 µM (inactive)

**Q.** And the GI50 (OVCAR-4)?
**A.** 33 µM (inactive)

**Q.** And the GI50 (RXF 393)?
**A.** 2.1 µM (inactive)

**Q.** And the GI50 (SF-268)?
**A.** > 78.9 µM (inactive)

**Q.** And the GI50 (HL-60)?
**A.** 17.7 µM (inactive)

**Q.** And the GI50 (A498)?
**A.** 37 µM (inactive)

**Q.** What about the GI50 (BT-549) of the same compound?
**A.** 41.2 µM (inactive)

**Q.** What about the GI50 (CAKI-1) of the same compound?
**A.** > 60.3 µM (inactive)

**Q.** What about the GI50 (UACC-257) of the same compound?
**A.** 23.2 µM (inactive)

**Q.** What about the GI50 (KM12) of the same compound?
**A.** 45.1 µM (inactive)

**Q.** And the GI50 (MDA-MB-435)?
**A.** 20.6 µM (inactive)

**Q.** And the GI50 (MDA-N)?
**A.** 19 µM (inactive)

**Q.** And the GI50 (U-251)?
**A.** 46.5 µM (inactive)

**Q.** And the GI50 (SN12C)?
**A.** > 71.1 µM (inactive)

**Q.** What about the GI50 (SK-MEL-28) of the same compound?
**A.** 18.6 µM (inactive)

**Q.** What about the GI50 (UACC-62) of the same compound?
**A.** > 55.8 µM (inactive)

**Q.** And the GI50 (HCT-15)?
**A.** > 78.9 µM

**Q.** What about the GI50 (LOX IMVI) of the same compound?
**A.** 18.5 µM (inactive)

**Q.** And the GI50 (786-0)?
**A.** 36.6 µM (inactive)

**Q.** And the GI50 (HT-29)?
**A.** 35.4 µM (inactive)

**Q.** What about the GI50 (RPMI-8226) of the same compound?
**A.** 27.9 µM (inactive)

**Q.** What about the GI50 (OVCAR-3) of the same compound?
**A.** > 100 µM (inactive)

**Q.** And the GI50 (Hs-578T)?
**A.** 46 µM (inactive)

**Q.** What about the GI50 (SK-OV-3) of the same compound?
**A.** > 94 µM (inactive)

**Q.** What about the GI50 (UO-31) of the same compound?
**A.** > 84.9 µM (inactive)

**Q.** And the GI50 (ACHN)?
**A.** > 83.2 µM (inactive)

**Q.** What about the GI50 (SNB-75) of the same compound?
**A.** 20.6 µM (inactive)

**Q.** Which results are given for COc1ccc(/C=N/c2nc3cc4sc(/N=C/c5ccc(OC)cc5)nc4cc3s2)cc1?
**A.** GI50 (CCRF-CEM): 4.2 µM (inactive); GI50 (EKVX): 21.2 µM (inactive); GI50 (A549): 8 µM (inactive); GI50 (SK-MEL-5): 13.6 µM (inactive); GI50 (MDA-MB-231): 98.6 µM (inactive); GI50 (Malme-3M): > 54 µM (inactive); GI50 (MCF7): 11.6 µM (inactive); GI50 (SR): 22.9 µM (inactive); GI50 (HOP-62): > 49.2 µM (inactive); GI50 (M14): 58.2 µM (inactive); GI50 (SF-539): > 100 µM (inactive); GI50 (HOP-92): > 78.9 µM (inactive); GI50 (NCI-H522): 10.4 µM (inactive); GI50 (DU-145): > 23.7 µM (inactive); GI50 (SK-MEL-2): > 100 µM (inactive); GI50 (NCI/ADR-RES): 23.4 µM (inactive); GI50 (K562): 34 µM (inactive); GI50 (NCI-H226): 24.9 µM (inactive); GI50 (MOLT-4): 8.15 µM (inactive); GI50 (OVCAR-5): > 81.5 µM (inactive); GI50 (SNB-19): > 100 µM (inactive); GI50 (T47D): > 40.9 µM (inactive); GI50 (COLO 205): 3.66 µM (inactive); GI50 (TK-10): 30.9 µM (inactive); GI50 (HCT-116): 18.4 µM (inactive); GI50 (NCI-H460): 5 µM (inactive); GI50 (HCC 2998): 24.7 µM (inactive); GI50 (OVCAR-8): > 60.5 µM (inactive); GI50 (NCI-H23): 15.9 µM (inactive); GI50 (SF-295): 43.6 µM (inactive); GI50 (IGROV-1): 57.4 µM (inactive); GI50 (PC-3): > 81.7 µM (inactive); GI50 (SW-620): 12.8 µM (inactive); GI50 (OVCAR-4): 57.4 µM (inactive); GI50 (RXF 393): > 57.9 µM (inactive); GI50 (SF-268): 56.8 µM (inactive); GI50 (HL-60): 18.4 µM (inactive); GI50 (A498): > 100 µM (inactive); GI50 (BT-549): 27.3 µM (inactive); GI50 (CAKI-1): 27 µM (inactive); GI50 (UACC-257): 70.6 µM (inactive); GI50 (KM12): 34.1 µM (inactive); GI50 (MDA-MB-435): 29.7 µM (inactive); GI50 (MDA-N): 34.2 µM (inactive); GI50 (U-251): 54.3 µM (inactive); GI50 (SN12C): 32.7 µM (inactive); GI50 (SK-MEL-28): > 86.1 µM (inactive); GI50 (UACC-62): 27.3 µM (inactive); GI50 (HCT-15): 19.5 µM; GI50 (LOX IMVI): 28.3 µM (inactive); GI50 (786-0): > 76.4 µM (inactive); GI50 (HT-29): 23.1 µM (inactive); GI50 (RPMI-8226): 41.8 µM (inactive); GI50 (OVCAR-3): 23.6 µM (inactive); GI50 (Hs-578T): > 32.7 µM (inactive); GI50 (SK-OV-3): 49.7 µM (inactive); GI50 (UO-31): 55.7 µM (inactive); GI50 (ACHN): 43.7 µM (inactive); GI50 (SNB-75): > 100 µM (inactive)
